Laboratory results from US20150105252A1, “SUBSTITUTED PYRAZOLES AS HERBICIDES” (E I DU PONT DE NEMOURS AND COMPANY, priority 2013, published 2015).

What was measured:
barnyardgrass [1] = assay: Test A preemergence; type: in vivo, Echinochloa crus-galli; conditions: preemergence; for Barnyardgrass plant response rating (0 to 100 scale, 0 is no effect, 100 is complete control): visual injury approx. 10 days after treatment
Outline: (§1)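 Ratings express plant response from 0 (no effect) to 100 (complete control), judged visually against untreated controls after approximately 10 days in the greenhouse. Preemergence applications were made as directed soil sprays onto seeded loam–sand mix, and postemergence applications onto 2–10 cm plants at one- to two-leaf stage.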

crabgrass, large [2] = assay: Test A preemergence; type: in vivo, Digitaria sanguinalis; conditions: preemergence; for Crabgrass, Large plant response rating (0 to 100 scale): 125 g ai/ha, visual injury approx. 10 days after treatment; for Crabgrass, Large plant response rating: 500 g ai/ha, visual injury after approx. 10 days, 0 to 100 scale (0 no effect, 100 complete control)
Outline: as §1

foxtail, giant [3] = assay: Test A preemergence; type: in vivo, Setaria faberii; conditions: preemergence; for Foxtail, Giant plant response rating (0 to 100 scale): 125 g ai/ha, visual injury approx. 10 days after treatment; for Foxtail, Giant plant response rating: 500 g ai/ha, visual injury after approx. 10 days, 0 to 100 scale (0 no effect, 100 complete control)
Outline: as §1

morningglory [4] = assay: Test A preemergence; type: in vivo, Ipomoea spp.; conditions: preemergence; for Morningglory plant response rating (0 to 100 scale): 125 g ai/ha, visual injury approx. 10 days after treatment; for Morningglory plant response rating: 500 g ai/ha, visual injury after approx. 10 days, 0 to 100 scale (0 no effect, 100 complete control)
Outline: as §1

pigweed [5] = assay: Test A preemergence; type: in vivo, Amaranthus retroflexus; conditions: preemergence; for Pigweed plant response rating (0 to 100 scale): 125 g ai/ha, visual injury approx. 10 days after treatment; for Pigweed plant response rating: 500 g ai/ha, visual injury after approx. 10 days, 0 to 100 scale (0 no effect, 100 complete control)
Outline: as §1

velvetleaf [6] = assay: Test A preemergence; type: in vivo, Abutilon theophrasti; conditions: preemergence; for Velvetleaf plant response rating (0 to 100 scale): 125 g ai/ha, visual injury approx. 10 days after treatment; for Velvetleaf plant response rating: 500 g ai/ha, visual injury after approx. 10 days, 0 to 100 scale (0 no effect, 100 complete control)
Outline: as §1

wheat [7] = assay: Test A preemergence; type: in vivo, Triticum aestivum; conditions: preemergence; for Wheat plant response rating (0 to 100 scale): 125 g ai/ha, visual injury approx. 10 days after treatment; for Wheat plant response rating: 500 g ai/ha, visual injury after approx. 10 days, 0 to 100 scale (0 no effect, 100 complete control)
Outline: as §1

corn [8] = assay: Test A preemergence; type: in vivo, Zea mays; conditions: preemergence; for Corn plant response rating (0 to 100 scale): 125 g ai/ha, visual injury approx. 10 days after treatment; for Corn plant response rating: 500 g ai/ha, visual injury after approx. 10 days, 0 to 100 scale (0 no effect, 100 complete control)
Outline: as §1

barnyardgrass [9] = assay: Test A postemergence; type: in vivo, Echinochloa crus-galli
Outline: as §1

crabgrass, large [10] = assay: Test A postemergence; type: in vivo, Digitaria sanguinalis
Outline: as §1

foxtail, giant [11] = assay: Test A postemergence; type: in vivo, Setaria faberii
Outline: as §1

morningglory [12] = assay: Test A postemergence; type: in vivo, Ipomoea spp.
Outline: as §1

pigweed [13] = assay: Test A postemergence; type: in vivo, Amaranthus retroflexus
Outline: as §1

velvetleaf [14] = assay: Test A postemergence; type: in vivo, Abutilon theophrasti
Outline: as §1

wheat [15] = assay: Test A postemergence; type: in vivo, Triticum aestivum
Outline: as §1

corn [16] = assay: Test A postemergence; type: in vivo, Zea mays
Outline: as §1

rice = assay: Test B flood; type: in vivo, Oryza sativa; conditions: 250 g ai/ha, visual rating on 0 to 100 scale (0 no effect, 100 complete control), 13 to 15 days
Outline: (§2)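 Each compound is applied to the floodwater of pots holding 2-leaf seedlings, water standing 3 cm over the soil throughout. Plants stay in a greenhouse 13 to 15 days before visual scoring against controls from 0 (no effect) to 100 (complete control).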

sedge, umbrella = assay: Test B flood; type: in vivo, Cyperus difformis; conditions: 250 g ai/ha, visual rating on 0 to 100 scale (0 no effect, 100 complete control), 13 to 15 days
Outline: as §2

ducksalad = assay: Test B flood; type: in vivo, Heteranthera limosa; conditions: 250 g ai/ha, visual rating on 0 to 100 scale (0 no effect, 100 complete control), 13 to 15 days
Outline: as §2

barnyardgrass [17] = assay: Test B flood; type: in vivo, Echinochloa crus-galli; conditions: 250 g ai/ha, visual rating on 0 to 100 scale (0 no effect, 100 complete control), 13 to 15 days
Outline: as §2

[18] = 125 g ai/ha, visual injury, 0 to 100 scale, approx. 10 days
[19] = 500 g ai/ha, visual injury after approx. 10 days, 0 to 100 scale (0 no effect, 100 complete control)
[20] = Postemergence, 500 g ai/ha, 0 to 100 scale (0 no effect, 100 complete control)
[21] = postemergence, 125 g ai/ha, about 10 days, visual rating on 0 to 100 scale (0 no effect, 100 complete control)
[22] = Postemergence, 125 g ai/ha, 0 to 100 scale, 0 no effect, 100 complete control

| SMILES | Barnyardgrass plant response rating (barnyardgrass [1]; [19]) | Crabgrass, Large plant response rating (0 to 100 scale) (crabgrass, large [2]) | Crabgrass, Large plant response rating (crabgrass, large [2]) | Foxtail, Giant plant response rating (0 to 100 scale) (foxtail, giant [3]) | Foxtail, Giant plant response rating (foxtail, giant [3]) | Morningglory plant response rating (0 to 100 scale) (morningglory [4]) | Morningglory plant response rating (morningglory [4]) | Pigweed plant response rating (0 to 100 scale) (pigweed [5]) | Pigweed plant response rating (pigweed [5]) | Velvetleaf plant response rating (0 to 100 scale) (velvetleaf [6]) | Velvetleaf plant response rating (velvetleaf [6]) | Wheat plant response rating (0 to 100 scale) (wheat [7]) | Wheat plant response rating (wheat [7]) | Corn plant response rating (0 to 100 scale) (corn [8]) | Corn plant response rating (corn [8]) | Barnyardgrass plant response rating (barnyardgrass [9]; [20]) | Barnyardgrass plant response rating (barnyardgrass [9]; [21]) | Crabgrass, Large plant response rating (crabgrass, large [10]; [20]) | Crabgrass, Large plant response rating (crabgrass, large [10]; [21]) | Foxtail, Giant plant response rating (foxtail, giant [11]; [20]) | further results |
| --- | --- | --- | --- | --- | --- | --- | --- | --- | --- | --- | --- | --- | --- | --- | --- | --- | --- | --- | --- | --- | --- |
| CCCCNC(=O)c1cc(Cl)n(Cc2cccc(C(F)(F)F)c2)n1 [Compound 171] | 0 | 0 | 0 | 0 | 0 | 0 | 0 | 0 | 0 | 0 | 0 | 0 | 0 | 0 | 0 | 20 | 0 | 30 | 10 | 20 | Barnyardgrass plant response rating (barnyardgrass [1]; [18]): 0; Foxtail, Giant plant response rating (foxtail, giant [11]; [21]): 10; Morningglory plant response rating (morningglory [12]; [20]): 30; Morningglory plant response rating (morningglory [12]; [21]): 0; Pigweed plant response rating (pigweed [13]; [20]): 50; Pigweed plant response rating (pigweed [13]; [21]): 20; Velvetleaf plant response rating (velvetleaf [14]; [20]): 30; Velvetleaf plant response rating (velvetleaf [14]; [21]): 20; Wheat plant response rating (wheat [15]; [20]): 0; Wheat plant response rating (wheat [15]; [21]): 0; Corn plant response rating (corn [16]; [20]): 20; Corn plant response rating (corn [16]; [21]): 0; Plant response rating, Rice (rice): 0; Plant response rating, Sedge, Umbrella (sedge, umbrella): 0; Plant response rating, Ducksalad (ducksalad): 0; Plant response rating, Barnyardgrass (barnyardgrass [17]): 0 |
| O=C(NC1CC1)c1cc(Cl)n(Cc2cccc(C(F)(F)F)c2)n1 [Compound 174] | 0 | 10 | 40 | 0 | 20 | 0 | 0 | 20 | 90 | 0 | 0 | 0 | 0 | 0 | 0 | 10 | 0 | 10 | 0 | 0 | Barnyardgrass plant response rating (barnyardgrass [1]; [18]): 0; Foxtail, Giant plant response rating (foxtail, giant [11]; [21]): 0; Morningglory plant response rating (morningglory [12]; [20]): 10; Morningglory plant response rating (morningglory [12]; [21]): 0; Pigweed plant response rating (pigweed [13]; [20]): 90; Pigweed plant response rating (pigweed [13]; [21]): 20; Velvetleaf plant response rating (velvetleaf [14]; [20]): 10; Velvetleaf plant response rating (velvetleaf [14]; [21]): 0; Wheat plant response rating (wheat [15]; [20]): 0; Wheat plant response rating (wheat [15]; [21]): 0; Corn plant response rating (corn [16]; [20]): 10; Corn plant response rating (corn [16]; [21]): 0; Plant response rating, Rice (rice): 0; Plant response rating, Sedge, Umbrella (sedge, umbrella): 0; Plant response rating, Ducksalad (ducksalad): 0; Plant response rating, Barnyardgrass (barnyardgrass [17]): 0 |
| O=C(NCC(F)(F)F)c1cc(I)n(Cc2cccc(C(F)(F)F)c2)n1 [Compound 181] | 10 | 10 | 60 | 0 | 20 | 0 | 0 | 10 | 50 | 0 | 0 | 0 | 0 | 0 | 0 | 10 | 10 | 10 | 10 | 10 | Barnyardgrass plant response rating (0 to 100 scale, 0 is no effect, 100 is complete control) (barnyardgrass [1]; 125 g ai/ha): 0; Foxtail, Giant plant response rating (foxtail, giant [11]; [21]): 0; Morningglory plant response rating (morningglory [12]; [20]): 80; Pigweed plant response rating (pigweed [13]; [20]): 100; Velvetleaf plant response rating (velvetleaf [14]; [20]): 20; Wheat plant response rating (wheat [15]; [20]): 0; Corn plant response rating (corn [16]; [20]): 20; Corn plant response rating (corn [16]; [21]): 0; Plant response rating, Rice (rice): 20; Plant response rating, Sedge, Umbrella (sedge, umbrella): 40; Plant response rating, Ducksalad (ducksalad): 0; Plant response rating, Barnyardgrass (barnyardgrass [17]): 0 |
| CCCNC(=O)c1cc(I)n(Cc2cccc(C(F)(F)F)c2)n1 [Compound 183] | 10 | 10 | 80 | 10 | 50 | 0 | 0 | 10 | 50 | 0 | 0 | 0 | 0 | 0 | 0 | 20 | 10 | 20 | 10 | 20 | Barnyardgrass plant response rating (0 to 100 scale, 0 is no effect, 100 is complete control) (barnyardgrass [1]; 125 g ai/ha): 0; Foxtail, Giant plant response rating (foxtail, giant [11]; [21]): 10; Morningglory plant response rating (morningglory [12]; [22]): 10; Morningglory plant response rating (morningglory [12]; [20]): 90; Pigweed plant response rating (pigweed [13]; [22]): 90; Pigweed plant response rating (pigweed [13]; [20]): 80; Velvetleaf plant response rating (velvetleaf [14]; [22]): 10; Velvetleaf plant response rating (velvetleaf [14]; [20]): 40; Wheat plant response rating (wheat [15]; [22]): 0; Wheat plant response rating (wheat [15]; [20]): 0; Corn plant response rating (corn [16]; [20]): 10; Corn plant response rating (corn [16]; [21]): 0; Plant response rating, Rice (rice): 0; Plant response rating, Sedge, Umbrella (sedge, umbrella): 0; Plant response rating, Ducksalad (ducksalad): 0; Plant response rating, Barnyardgrass (barnyardgrass [17]): 0 |
